# Measured values reported in article PMC8607231, “Generation of KS-133 as a Novel Bicyclic Peptide with a Potent and Selective VIPR2 Antagonist Activity that Counteracts Cognitive Decline in a Mouse Model of Psychiatric Disorders” (Frontiers in Pharmacology, 2021).
# Where a SMILES comes first, the peptide text is derived from it. Bridges are numbered along the chain shown (N, C = ends).
# System: prefrontal pyramidal neurons
# Experiment: Golgi-Cox dendritic morphology and Sholl analysis of prefrontal cortex neurons
# Type: in vivo, mouse
# Protocol: For behavioral experiments, all litters were randomly divided into Ro 25-1553- and PBS-treated groups. From P1 to P14, mice were injected s.c. once daily with Ro 25-1553 at a dose of 0.07 nmol/g ([Ago et al., 2015]). Mice treated with PBS from P1 to P14 were used as the control. KS-133 or the vehicle was simultaneously injected with Ro 25-1553 or PBS. Animals were weaned at P21 and divided by gender at P28. We used male mice exclusively to minimize any potential variability due to sex-specific effects on behavioral performance. […]
# Dendritic morphological analysis was performed on mice after the novel object recognition test and samples were collected within 10 min of dissection. […] Morphologies of apical and basal dendrites were quantified in three dimensions using the Neurolucida neuron tracing system (MBF Bioscience, Williston, VT) with the experimenter blinded to the treatment. […]
# FIGURE 6 Alterations in the dendritic morphology of prefrontal pyramidal neurons in mice treated with Ro 25-1553 and KS-133 during the early postnatal period. […] The number of intersections of dendrites with 7.5-μm concentric spheres centered on the soma was measured by Sholl analysis. Results are expressed as the mean ± S.E.M. of 40 neurons from five mice per group. *p < 0.05, **p < 0.01, ***p < 0.001.
compound,measurement,setting,value
"CC[C@H](C)[C@H](NC(=O)[C@H](CC(C)C)NC(=O)[C@@H]1CC(=O)NCCCC[C@@H]2NC(=O)[C@@H]3CCCN3C(=O)[C@H](CC(C)C)NC(=O)[C@H](Cc3ccc(O)cc3)NC(=O)[C@@H]3CCCN3C(=O)[C@@H]3CCCN3C(=O)[C@@H](NC(C)=O)CSSC[C@H](NC(=O)[C@H](CC(C)C)NC(=O)[C@H](Cc3ccc(O)cc3)NC2=O)C(=O)N1)C(N)=O [KS-133, Ac-c[Cys-Pro-Pro-Tyr-Leu-Pro-c(Lys-Tyr-Leu-Cys]-Asp)-Leu-Ile-NH2] (Ac-CPPYLPKYLCDLI-NH2; disulfide 1-10; lactam 7-11)","Effect on Ro 25-1553-induced changes in soma size, branch number and dendrite length","KS-133 simultaneously with Ro 25-1553, P1-14",counteracted
same,"Sholl analysis, effect on Ro 25-1553-induced morphological abnormalities of apical and basal dendrites","KS-133 with Ro 25-1553, prefrontal cortex",prevented the morphological abnormalities
